What was measured:
[1] = Solubility and stability in simulated gastric fluid (SGF); type: in vitro ADME; conditions: pH 1.2, 37 °C, n = 2
Experimental: (§1) SGF and SIF were prepared as per USP method. Briefly, SGF was prepared by adding 2 g of sodium chloride and 3.2 g of pepsin with water and pH was adjusted to 1.2 ± 0.1 using hydrochloric acid (7 mL) and volume made up to 1 L. SIF was prepared by dissolving 6.8 g monobasic potassium phosphate and 10 g pancreatin in Milli-Q water (Millipore, Billerica, MA, USA). pH was adjusted to 6.8 ± 0.1 with sodium hydroxide solution and volume was made upto 1 L. Reactions were initiated by spiking DMSO stock solutions of GE phenolics 10 μL into 1990 μL of SGF and SIF incubated at 37 °C for 10 min. Samples (200 μL) were withdrawn at 0, 15, 30, and 60 min for SGF and at 0, 30, 60, and 120 min for SIF and quenched with 200 μL acetonitrile containing internal standard.

[2] = Liver microsomal stability, mouse; type: in vitro ADME, CD1 mouse; conditions: protein 0.5 mg/mL; for remaining at 0.5 h, 10 µM: CD1, pooled liver microsomes, pH 7.4, substrate 10 µM, n = 2, read-out: % Remaining at 30 min; for Intrinsic Clearance: mouse liver microsomes, substrate 10 µM, 45 mg protein/g liver
Experimental: (§2) Pooled liver microsomes from CD1 mouse, IGS Sprague-Dawley rat, Beagle dog, and mixed gender human were used for assays. Incubations (1 mL) consisted of liver microsomes (0.5 mg/mL), NADPH (1 mM) and 100 mM sodium phosphate buffer (pH 7.4). Following pre-incubation (10 min, 37 °C), reactions were initiated by spiking ACN/DMSO (80:20) stock solutions of GE phenolics (5 μL, 10 μM). Samples (100 μL) were withdrawn at 0, 5, 10, 15, 20 and 30 min and quenched with 200 μL acetonitrile containing internal standard. Concomitant NADPH-free control incubations were prepared similarly.

[3] = Liver microsomal stability, dog; type: in vitro ADME, Beagle dog; conditions: protein 0.5 mg/mL; for remaining at 0.5 h, 10 µM: Beagle, pooled liver microsomes, pH 7.4, substrate 10 µM, n = 2, read-out: % Remaining at 30 min; for Intrinsic Clearance: dog liver microsomes, substrate 10 µM, 45 mg protein/g liver
Experimental: as §2

[4] = Solubility and stability in simulated intestinal fluid (SIF); type: in vitro ADME; conditions: pH 6.8, 37 °C, n = 2
Experimental: as §1

[5] = Liver microsomal stability, human; type: in vitro ADME; conditions: protein 0.5 mg/mL; for remaining at 0.5 h, 10 µM: both sexes, pooled liver microsomes, pH 7.4, substrate 10 µM, n = 2, read-out: % Remaining at 30 min; for Intrinsic Clearance: human liver microsomes, substrate 10 µM, 45 mg protein/g liver
Experimental: as §2

[6] = Liver microsomal stability, statements across species; type: in vitro ADME; conditions: CD1 (mouse), IGS Sprague-Dawley (rat), Beagle (dog), human, pooled liver microsomes, pH 7.4
Experimental: as §2

half-life at 10 µM [1] [h] | remaining at 0.5 h, 10 µM [2] [%] | Intrinsic Clearance [2] [mL/min/g Liver] | remaining at 0.5 h, 10 µM [3] [%] | Intrinsic Clearance [3] [mL/min/g Liver] | half-life at 10 µM [4] [h] | remaining at 0.5 h, 10 µM [5] [%] | Intrinsic Clearance [5] [mL/min/g Liver] | half-life at 10 µM [6] [h] | Compound
> 1 | 10 | 8.0 | 45 | 5.6 | > 2 | 22 | 6.7 |  | CCCCCCCCCC(O)CC(=O)CCc1ccc(O)c(OC)c1 (stereo not shown) [10G, 10-gingerol]
> 1 | 3 | 15.7 | 9 | 29.9 | > 2 | 1 | 8.4 | < 0.5 | CCCCC/C=C/C(=O)CCc1ccc(O)c(OC)c1 [6S, 6-shogaol]
> 1 | 3 | 15.1 | 6 | 14.0 | > 2 | 1 | 8.5 | < 0.5 | CCCCCCCC(O)CC(=O)CCc1ccc(O)c(OC)c1 (stereo not shown) [8G, 8-gingerol]
> 1 | 30 | 10.5 | 67 | 14.1 | > 2 | 56 | 6.6 |  | CCCCC[C@H](O)CC(=O)CCc1ccc(O)c(OC)c1 [6G, 6-gingerol]

Reference: article PMC6154694, “Absorption, Metabolic Stability, and Pharmacokinetics of Ginger Phytochemicals” (Molecules : A Journal of Synthetic Chemistry and Natural …, 2017)
